Test results published in patent publication US12371428B2 (Exelixis, Inc., priority 2019, dated 2025).

Assays:
[1] = target: Human MET (residues 956-1390) (Homo sapiens (Human), UniProt P08581); experiment: Human Met kinase assay, HTRF KinEase (Example D-2); type: biochemical; settings: protocol of Example D-2 (other compounds); read-out: c-Met IC50
How it was run: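 HTRF KinEase assay on MET residues 956-1390 (0.1 ng/well) in buffer with 5 mM MgCl2, 1 mM DTT and 1 mM MnCl2, with biotinylated peptide substrate, ATP at Km, 10 compound concentrations and 3% DMSO final, run 40 min at room temperature. The […] signal was normalized to DMSO and to 1 μM reference compound, and IC50 came from a 4-parameter logistic fit.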

[2] = target: Mer (phospho-Mer, MERTK-transfected 293A cells) (Homo sapiens (Human), UniProt Q12866); experiment: Mer autophosphorylation ELISA in transient transfected 293A cells (Example H); type: cell-based; settings: cellular activity; Mer autophosphorylation ELISA in transient transfected 293A cells
How it was run: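 MERTK-transfected 293A; 8-pt dose, 1 h, serum-free, 0.3% DMSO. Cold lysis with orthovanadate and protease/phosphatase inhibitors. Phospho-Mer by DuoSet IC ELISA vs phospho-Mer standard. IC50: 4-PL fit; DMSO = 100%, reference inhibitor = 0%.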

[3] = target: Human MER (residues 528-999) (Homo sapiens (Human), UniProt Q12866); experiment: Human Mer kinase assay, HTRF KinEase (Example C-2); type: biochemical; settings: protocol of Example C-2 (other compounds)
How it was run: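 HTRF KinEase TK assay with MER 528-999 (1 ng/well) in enzymatic buffer plus 5 mM MgCl2 and 1 mM DTT, biotinylated peptide substrate and ATP at Km (40 μM), 3% DMSO final, 60 min at room temperature. Stopped with EDTA detection mix (SA-XL665, TK antibody-Eu3+), read at 665/620 nm after 60 min; IC50 from 10-point 4-parameter fit, normalized to DMSO and 1 μM reference.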

[4] = target: Human KDR (residues 790-1356) (Homo sapiens (Human), UniProt P35968); experiment: Human KDR kinase assay, HTRF KinEase (Example B-2); type: biochemical; settings: protocol of Example B-2 (other compounds)
How it was run: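 Ten compound concentrations (3% DMSO final) were pre-plated, then KDR (790-1356) with biotinylated peptide in Mg/Mn/DTT buffer was added; ATP at Km (4.0 μM) started a 40 min room-temperature reaction. Detection used Eu-TK antibody and SA-XL665 in EDTA buffer; activity normalized to DMSO and reference inhibitor, IC50 by logistic fit.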

Chain of Human MER (residues 528-999) (Q12866 528-999): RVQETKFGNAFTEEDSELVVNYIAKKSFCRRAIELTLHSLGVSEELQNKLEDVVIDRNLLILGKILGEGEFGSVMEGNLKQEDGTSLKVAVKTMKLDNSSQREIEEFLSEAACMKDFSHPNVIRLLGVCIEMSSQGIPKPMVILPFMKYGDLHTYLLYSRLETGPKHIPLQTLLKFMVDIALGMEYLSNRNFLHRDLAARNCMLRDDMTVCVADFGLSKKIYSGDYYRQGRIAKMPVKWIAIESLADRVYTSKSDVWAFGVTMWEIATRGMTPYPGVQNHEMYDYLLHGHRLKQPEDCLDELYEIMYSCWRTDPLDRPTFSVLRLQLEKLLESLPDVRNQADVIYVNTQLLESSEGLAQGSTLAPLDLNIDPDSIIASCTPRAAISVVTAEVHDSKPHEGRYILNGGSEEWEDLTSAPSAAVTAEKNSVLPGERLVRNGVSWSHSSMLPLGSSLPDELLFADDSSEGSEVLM
Chain of Mer (phospho-Mer, MERTK-transfected 293A cells) (Q12866 21-999): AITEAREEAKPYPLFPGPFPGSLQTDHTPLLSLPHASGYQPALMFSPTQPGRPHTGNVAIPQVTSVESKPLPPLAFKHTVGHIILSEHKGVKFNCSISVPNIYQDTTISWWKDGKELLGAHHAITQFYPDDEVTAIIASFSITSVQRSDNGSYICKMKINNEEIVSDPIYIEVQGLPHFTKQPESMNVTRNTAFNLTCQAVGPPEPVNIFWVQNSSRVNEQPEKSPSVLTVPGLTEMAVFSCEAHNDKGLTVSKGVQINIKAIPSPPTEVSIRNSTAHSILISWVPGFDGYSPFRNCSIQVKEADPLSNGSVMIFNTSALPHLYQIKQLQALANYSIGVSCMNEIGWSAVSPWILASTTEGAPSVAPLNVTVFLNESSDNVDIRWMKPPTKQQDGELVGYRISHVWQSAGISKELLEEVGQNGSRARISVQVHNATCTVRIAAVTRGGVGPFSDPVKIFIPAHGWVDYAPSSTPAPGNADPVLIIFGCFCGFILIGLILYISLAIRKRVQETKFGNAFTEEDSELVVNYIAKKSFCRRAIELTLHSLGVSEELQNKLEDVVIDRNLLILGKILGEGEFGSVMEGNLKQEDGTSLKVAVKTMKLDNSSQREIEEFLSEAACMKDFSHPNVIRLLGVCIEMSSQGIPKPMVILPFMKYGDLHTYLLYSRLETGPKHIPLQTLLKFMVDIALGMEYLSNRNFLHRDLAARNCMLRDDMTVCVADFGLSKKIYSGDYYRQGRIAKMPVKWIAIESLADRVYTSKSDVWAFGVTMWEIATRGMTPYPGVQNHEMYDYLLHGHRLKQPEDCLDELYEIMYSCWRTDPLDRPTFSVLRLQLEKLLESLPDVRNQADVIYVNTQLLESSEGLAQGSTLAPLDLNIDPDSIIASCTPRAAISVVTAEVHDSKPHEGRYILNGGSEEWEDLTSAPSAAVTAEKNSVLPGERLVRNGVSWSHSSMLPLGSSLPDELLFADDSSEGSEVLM
Chain of Human KDR (residues 790-1356) (P35968 790-1356): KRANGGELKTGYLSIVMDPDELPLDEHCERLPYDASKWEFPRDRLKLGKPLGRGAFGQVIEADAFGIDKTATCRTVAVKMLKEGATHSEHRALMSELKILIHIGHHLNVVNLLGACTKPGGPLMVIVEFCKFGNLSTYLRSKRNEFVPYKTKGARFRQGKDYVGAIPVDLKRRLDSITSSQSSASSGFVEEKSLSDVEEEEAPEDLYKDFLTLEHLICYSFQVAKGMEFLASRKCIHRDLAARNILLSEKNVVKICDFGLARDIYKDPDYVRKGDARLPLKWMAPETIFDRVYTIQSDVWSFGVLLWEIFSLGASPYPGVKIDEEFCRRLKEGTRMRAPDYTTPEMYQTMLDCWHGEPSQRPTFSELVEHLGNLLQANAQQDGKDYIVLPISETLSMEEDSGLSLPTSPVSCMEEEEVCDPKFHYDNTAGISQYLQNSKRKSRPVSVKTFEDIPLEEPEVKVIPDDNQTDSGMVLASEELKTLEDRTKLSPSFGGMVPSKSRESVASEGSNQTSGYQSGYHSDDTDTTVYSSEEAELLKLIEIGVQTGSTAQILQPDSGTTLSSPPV
Chain of Human MET (residues 956-1390) (P08581 956-1390): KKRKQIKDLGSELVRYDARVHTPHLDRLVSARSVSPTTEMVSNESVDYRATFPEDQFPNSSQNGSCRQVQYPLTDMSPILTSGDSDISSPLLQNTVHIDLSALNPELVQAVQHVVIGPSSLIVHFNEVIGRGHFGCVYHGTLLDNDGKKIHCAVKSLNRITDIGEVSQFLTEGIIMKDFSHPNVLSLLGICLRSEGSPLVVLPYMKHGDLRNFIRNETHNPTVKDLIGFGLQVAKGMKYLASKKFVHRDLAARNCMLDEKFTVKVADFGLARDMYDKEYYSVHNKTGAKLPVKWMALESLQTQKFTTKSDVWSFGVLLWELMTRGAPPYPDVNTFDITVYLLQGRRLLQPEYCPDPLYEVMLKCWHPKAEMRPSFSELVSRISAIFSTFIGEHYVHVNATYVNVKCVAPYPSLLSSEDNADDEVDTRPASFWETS

Structure (SMILES) | IC50 [1] | IC50 [2] | IC50 [3] | IC50 [4]
COc1cc2nccc(Oc3ccc(NC(=O)c4cn(C)c(CF)c(-c5ccc(F)cc5)c4=O)cc3F)c2nc1OC [Compound 73, N-[4-[(6,7-Dimethoxy-1,5-naphthyridin-4-yl)oxy]-3-fluorophenyl]-6-(fluoromethyl)-5-(4-fluorophenyl)-1-methyl-4-oxopyridine-3-carboxamide] | < 100 nM | < 100 nM | < 100 nM | 100 to 300 nM
COc1cc2nccc(Oc3ccc(NC(=O)c4cn(CC(F)(F)F)c(C)c(-c5ccc(F)cc5)c4=O)cc3F)c2nc1OC [Compound 74, N-[4-[(6,7-Dimethoxy-1,5-naphthyridin-4-yl)oxy]-3-fluorophenyl]-5-(4-fluorophenyl)-6-methyl-4-oxo-1-(2,2,2-trifluoroethyl)pyridine-3-carboxamide] | < 100 nM | < 100 nM | < 100 nM | < 100 nM
COc1cc2nccc(Oc3ccc(NC(=O)c4cn(C)c(C)c(-c5ccc(F)cc5C)c4=O)cc3F)c2nc1OC [Compound 75, N-[4-[(6,7-Dimethoxy-1,5-naphthyridin-4-yl)oxy]-3-fluorophenyl]-5-(4-fluoro-2-methylphenyl)-1,6-dimethyl-4-oxopyridine-3-carboxamide] | < 100 nM | < 100 nM | < 100 nM | 100 to 300 nM
CNc1c(-c2ccc(F)cc2)c(=O)c(C(=O)Nc2ccc(Oc3ccnc4cc(OC)c(OC)nc34)c(F)c2)cn1C [Compound 76, N-[4-[(6,7-Dimethoxy-1,5-naphthyridin-4-yl)oxy]-3-fluorophenyl]-5-(4-fluorophenyl)-1-methyl-6-(methylamino)-4-oxopyridine-3-carboxamide] | < 100 nM | < 100 nM | < 100 nM | < 100 nM
COc1cc2nccc(Oc3ccc(NC(=O)c4cn(C)c(C#N)c(-c5ccc(F)cc5)c4=O)cc3F)c2nc1OC [Compound 77, 6-Cyano-N-[4-[(6,7-dimethoxy-1,5-naphthyridin-4-yl)oxy]-3-fluorophenyl]-5-(4-fluorophenyl)-1-methyl-4-oxopyridine-3-carboxamide] | < 100 nM | < 100 nM | < 100 nM | > 300 nM
COc1cc2nccc(Oc3ccc(NC(=O)c4cn(C)c(OC)c(-c5ccc(F)cc5)c4=O)cc3F)c2nc1OC [Compound 78, N-[4-[(6,7-Dimethoxy-1,5-naphthyridin-4-yl)oxy]-3-fluorophenyl]-5-(4-fluorophenyl)-6-methoxy-1-methyl-4-oxopyridine-3-carboxamide] | < 100 nM | < 100 nM | < 100 nM | < 100 nM
COc1cnc2c(Oc3ccc(NC(=O)c4c(C)ncc(-c5ccc(F)cc5)c4O)cc3F)ccnc2c1 [Compound 80, N-[3-Fluoro-4-[(7-methoxy-1,5-naphthyridin-4-yl)oxy]phenyl]-5-(4-fluorophenyl)-4-hydroxy-2-methylpyridine-3-carboxamide] | < 100 nM | < 100 nM | < 100 nM | < 100 nM
COc1cc2nccc(Oc3ccc(NC(=O)c4c(C)n(C)cc(-c5ccc(F)cc5)c4=O)cc3F)c2nc1OC [Compound 81, N-[4-[(6,7-Dimethoxy-1,5-naphthyridin-4-yl)oxy]-3-fluorophenyl]-5-(4-fluorophenyl)-1,2-dimethyl-4-oxopyridine-3-carboxamide] | < 100 nM | < 100 nM | < 100 nM | < 100 nM
CCn1cc(-c2ccc(F)cc2)c(=O)c(C(=O)Nc2ccc(Oc3ccnc4cc(OC)c(OC)nc34)c(F)c2)c1C [Compound 82, N-[4-[(6,7-Dimethoxy-1,5-naphthyridin-4-yl)oxy]-3-fluorophenyl]-1-ethyl-5-(4-fluorophenyl)-2-methyl-4-oxopyridine-3-carboxamide] | < 100 nM | < 100 nM | < 100 nM | 100 to 300 nM
COc1cnc2c(Oc3ccc(NC(=O)c4ccc(C)n(-c5ccc(F)cc5)c4=O)cc3F)ccnc2c1 [Compound 83, N-[3-Fluoro-4-[(7-methoxy-1,5-naphthyridin-4-yl)oxy]phenyl]-1-(4-fluorophenyl)-6-methyl-2-oxopyridine-3-carboxamide] | < 100 nM | < 100 nM | < 100 nM | < 100 nM

The remaining lines, values ahead:

IC50 [1] | IC50 [2] | IC50 [3] | IC50 [4] | Structure (SMILES)
< 100 nM | < 100 nM | < 100 nM | 100 to 300 nM | COc1ccc2nccc(Oc3ccc(NC(=O)c4ccc(C)n(-c5ccc(F)cc5)c4=O)cc3F)c2n1 [Compound 84, N-[3-Fluoro-4-[(6-methoxy-1,5-naphthyridin-4-yl)oxy]phenyl]-1-(4-fluorophenyl)-6-methyl-2-oxopyridine-3-carboxamide]
100 to 300 nM | < 100 nM | < 100 nM | > 300 nM | COc1ccc2nccc(Oc3ccc(NC(=O)c4ccc(C)n(-c5ccc(F)cc5C)c4=O)cc3F)c2n1 [Compound 85, N-[3-Fluoro-4-[(6-methoxy-1,5-naphthyridin-4-yl)oxy]phenyl]-1-(4-fluoro-2-methylphenyl)-6-methyl-2-oxopyridine-3-carboxamide]
< 100 nM | < 100 nM | < 100 nM | > 300 nM | COc1cc2nccc(Oc3ccc(NC(=O)c4cc(C(C)=O)c(C)n(-c5ccc(F)cc5)c4=O)cc3F)c2nc1OC [Compound 86, 5-Acetyl-N-[4-[(6,7-dimethoxy-1,5-naphthyridin-4-yl)oxy]-3-fluorophenyl]-1-(4-fluorophenyl)-6-methyl-2-oxopyridine-3-carboxamide]
< 100 nM | < 100 nM | < 100 nM | > 300 nM | COc1cc2nccc(Oc3ccc(NC(=O)c4cc(C#N)c(C)n(-c5ccc(F)cc5)c4=O)cc3F)c2nc1OC [Compound 87, 5-Cyano-N-[4-[(6,7-dimethoxy-1,5-naphthyridin-4-yl)oxy]-3-fluorophenyl]-1-(4-fluorophenyl)-6-methyl-2-oxopyridine-3-carboxamide]
< 100 nM | < 100 nM | < 100 nM | < 100 nM | COc1cc2nccc(Oc3ccc(NC(=O)c4n[nH]c(C)c(-c5ccc(F)cc5)c4=O)cc3F)c2nc1OC [Compound 88, N-[4-[(6,7-Dimethoxy-1,5-naphthyridin-4-yl)oxy]-3-fluorophenyl]-5-(4-fluorophenyl)-6-methyl-4-oxo-1H-pyridazine-3-carboxamide]
< 100 nM | < 100 nM | < 100 nM | < 100 nM | COc1ccc2nccc(Oc3ccc(NC(=O)c4n[nH]c(C)c(-c5ccc(F)cc5)c4=O)cc3F)c2n1 [Compound 89, N-[3-Fluoro-4-[(6-methoxy-1,5-naphthyridin-4-yl)oxy]phenyl]-5-(4-fluorophenyl)-6-methyl-4-oxo-1H-pyridazine-3-carboxamide]
< 100 nM | < 100 nM | < 100 nM | < 100 nM | COc1cc2nccc(Oc3ccc(NC(=O)c4n[nH]c(C)c(-c5ccc(F)cc5C)c4=O)cc3F)c2nc1OC [Compound 90, N-[4-[(6,7-Dimethoxy-1,5-naphthyridin-4-yl)oxy]-3-fluorophenyl]-5-(4-fluoro-2-methylphenyl)-6-methyl-4-oxo-1H-pyridazine-3-carboxamide]
< 100 nM | < 100 nM | < 100 nM | 100 to 300 nM | COc1cc2nccc(Oc3ccc(NC(=O)c4nn(C)c(C)c(-c5ccc(F)cc5)c4=O)cc3)c2nc1OC [Compound 91, N-[4-[(6,7-Dimethoxy-1,5-naphthyridin-4-yl)oxy]phenyl]-5-(4-fluorophenyl)-1,6-dimethyl-4-oxopyridazine-3-carboxamide]
< 100 nM | < 100 nM | < 100 nM | 100 to 300 nM | COc1cc2nccc(Oc3ccc(NC(=O)c4nn(C)c(C)c(-c5ccc(F)cc5)c4=O)cc3F)c2nc1OC [Compound 92, N-[4-[(6,7-Dimethoxy-1,5-naphthyridin-4-yl)oxy]-3-fluorophenyl]-5-(4-fluorophenyl)-1,6-dimethyl-4-oxopyridazine-3-carboxamide]
< 100 nM | < 100 nM | < 100 nM | < 100 nM | COc1cc2nccc(Oc3ccc(NC(=O)c4ncc(C)n(-c5ccc(F)cc5)c4=O)cc3F)c2nc1OC [Compound 93, N-[4-[(6,7-Dimethoxy-1,5-naphthyridin-4-yl)oxy]-3-fluorophenyl]-4-(4-fluorophenyl)-5-methyl-3-oxopyrazine-2-carboxamide]
